According to PubChem BioAssay (NCI):
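In this assay, cells in 96-well plates receive the compound at five concentrations for 48 hours. Endpoints are linearly interpolated between the surrounding concentrations. GI50 is the concentration that inhibits growth by half. TGI denotes the concentration required for complete inhibition of growth.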

How the values were obtained:
Test in all cases: NCI tumour cell line growth inhibition, 48 h
SK-OV-3 ovarian = test system: SK-OV-3 ovarian
K-562 leukemia = test system: K-562 leukemia
CCRF-CEM leukemia = test system: CCRF-CEM leukemia
SNB-19 CNS = test system: SNB-19 CNS
DU-145 prostate = test system: DU-145 prostate
SF-539 CNS = test system: SF-539 CNS
HCC-2998 colon = test system: HCC-2998 colon
A549 NSCLC = test system: A549 NSCLC
SW-620 colon = test system: SW-620 colon
SNB-75 CNS = test system: SNB-75 CNS

Compound	GI50 (SK-OV-3 ovarian)	TGI (SK-OV-3 ovarian)	GI50 (K-562 leukemia)	TGI (K-562 leukemia)	GI50 (CCRF-CEM leukemia)	TGI (CCRF-CEM leukemia)	GI50 (SNB-19 CNS)	TGI (SNB-19 CNS)	GI50 (DU-145 prostate)	TGI (DU-145 prostate)	GI50 (SF-539 CNS)	TGI (SF-539 CNS)	GI50 (HCC-2998 colon)	TGI (HCC-2998 colon)	GI50 (A549 NSCLC)	TGI (A549 NSCLC)	GI50 (SW-620 colon)	TGI (SW-620 colon)	GI50 (SNB-75 CNS)	TGI (SNB-75 CNS)
Cc1ccc(-c2nc([P+](c3ccccc3)(c3ccccc3)c3ccccc3)c(Nc3ccccc3)o2)cc1	1.44 µM	3.08 µM	0.326 µM	1.27 µM	0.445 µM	2.28 µM	1.16 µM	2.41 µM	1.2 µM	2.48 µM	1.54 µM	2.91 µM	0.659 µM	2.02 µM	1.15 µM	2.87 µM	0.446 µM	1.66 µM	1.23 µM	2.54 µM
CCOC(=O)/C=C/C(=O)[C@H](CC(C)C)NC(=O)[C@H](Cc1ccccc1)NC(=O)OCc1ccccc1	18.6 µM	32.6 µM	2.09 µM	10.5 µM	2.58 µM	18.8 µM	12.6 µM	28.1 µM	3.1 µM	11.5 µM	2.45 µM	6.04 µM	15.6 µM	30.1 µM	20.7 µM	39.6 µM	2.86 µM	8.16 µM	12.6 µM	25.4 µM
Cc1ccc(NCCN(C)C)c2c(=O)c3ccccc3sc12	1.73 µM	3.92 µM	1.6 µM	3.56 µM	2.12 µM	6.18 µM	2.24 µM	6.63 µM	2.02 µM	4.63 µM	1.59 µM	2.97 µM	1.57 µM	2.92 µM	1.35 µM	3.4 µM	1.46 µM	3.02 µM	1.49 µM	3.08 µM
C#COc1cccc(Nc2ncnc3cc(NC(=O)[C@H](C)Cl)ccc23)c1	13 µM	> 62.5 µM	2.03 µM	> 62.5 µM	2.41 µM	> 62.5 µM	4.72 µM	> 62.5 µM	6.09 µM	> 62.5 µM	2.85 µM	> 62.5 µM	5.71 µM	> 62.5 µM	3.18 µM	> 62.5 µM	2.58 µM	> 62.5 µM	2.6 µM	> 62.5 µM
CN(C)c1ccc(C(c2ccc(Cl)cc2)c2ccc(N(C)C)cc2)cc1		> 100 µM		> 100 µM		> 100 µM		> 100 µM		> 100 µM		> 100 µM		> 100 µM		> 100 µM		> 100 µM		> 100 µM
N#Cc1c(N)nc(NCc2ccccc2)c(C#N)c1-c1ccc(Cl)cc1Cl	> 100 µM	> 100 µM	> 100 µM	> 100 µM	10.2 µM	28.6 µM	> 100 µM	> 100 µM	> 100 µM	> 100 µM	> 100 µM	> 100 µM	> 100 µM	> 100 µM	> 100 µM	> 100 µM	74.4 µM	> 100 µM	22.9 µM	99 µM
COc1ccccc1NS(=O)(=O)c1ccc2oc(SC(C)C)nc2c1	33.5 µM	> 100 µM	3.73 µM	> 100 µM	11.9 µM	56.1 µM	37.7 µM	> 100 µM	31.8 µM	> 100 µM	18.6 µM	56.1 µM	27 µM	51.4 µM	16.3 µM	88.6 µM	31.6 µM	> 100 µM	27.4 µM	84.3 µM
CC(=O)c1cc(C(=O)c2ccc3c(c2)Sc2ccccc2N3)c2c(C)cccn12	0.266 µM	10.5 µM	0.112 µM	> 100 µM	0.332 µM	> 100 µM	0.246 µM	> 100 µM	0.38 µM	> 34.8 µM	0.234 µM	1.13 µM	1.65 µM	> 100 µM	0.265 µM	40.4 µM	0.265 µM	> 100 µM	0.178 µM	1.04 µM
COc1cc(/C=C/c2cc(/C=C/c3ccc(O)c(OC)c3)n(C(=O)Nc3ccc(Cl)cc3)n2)ccc1O	0.426 µM	1.8 µM	0.306 µM	1.34 µM	0.298 µM	> 21.4 µM	0.664 µM	11.1 µM	0.382 µM	1.67 µM	0.501 µM	2.41 µM	1.68 µM	6.01 µM	0.653 µM	10.3 µM	0.49 µM	2.73 µM	0.444 µM	2.25 µM
C=C1C(=O)O[C@H]2[C@H]1CC/C(COC(=O)NCCc1c[nH]c3ccc(Cl)cc13)=C\CC[C@@]1(C)O[C@@H]21	13.2 µM	26 µM	1.1 µM	5.95 µM	0.583 µM	3.07 µM	3.98 µM	14.8 µM	1.61 µM	3.25 µM	1.75 µM	3.32 µM	1.96 µM	4.03 µM	2.28 µM	5.84 µM	1.82 µM	4.26 µM	1.33 µM	2.97 µM
Cc1cc(Cl)ccc1Nc1nc(C(F)(F)F)ccc1C(=O)N/N=C/c1ccccc1Cl	0.874 µM	4.95 µM	0.588 µM		0.341 µM	4.78 µM	1.72 µM	14.5 µM	1.62 µM	> 27.6 µM	1.22 µM	3.6 µM	1.34 µM	> 100 µM	1.77 µM	11.6 µM	0.667 µM	6.02 µM	2.29 µM	> 29.3 µM
CN(C)c1ccc(/C=c2/c3ccccc3n3c2c2cc(F)ccc2[n+]3C)cc1	34.1 µM	> 100 µM	1.48 µM	> 47.5 µM	2.79 µM	46.1 µM	10.2 µM	44.3 µM	5.07 µM	18.4 µM	2.59 µM	7.49 µM		11.4 µM	6.04 µM	27.2 µM	3.17 µM	15.2 µM	8.07 µM	20.3 µM
CC1=C[C@H]2C[C@H](C)[C@H]3CC[C@H](C)[C@]4(C1)C(=O)C(O)=C(C)C(=O)[C@@]324	45.1 µM	> 100 µM	20 µM	39.5 µM	11.7 µM	31.5 µM	30.2 µM	> 100 µM	43.3 µM	> 100 µM	52.6 µM	> 100 µM	19.6 µM	47.2 µM	28.5 µM	> 100 µM	31.5 µM	> 100 µM	46.7 µM	> 100 µM
COc1cccc(/C(C)=N/NC(=O)CSc2nc3ccccc3c(=O)n2CCc2ccc(S(N)(=O)=O)cc2)c1	2.26 µM	4.88 µM	11.2 µM	> 100 µM	5.31 µM	> 100 µM	2.89 µM	7.87 µM	3.35 µM	10.6 µM	1.88 µM	3.98 µM	24 µM	62.9 µM	2.01 µM	3.93 µM	2.77 µM	7.5 µM	5.86 µM	26.9 µM
COc1cc(C2C3=C(COC3=O)N(CCO)c3cc4c(cc32)OCO4)cc(OC)c1O (stereo not drawn)	2.03 µM	> 26.7 µM	1.49 µM	> 50 µM	1.51 µM	> 50 µM	2.27 µM	> 18.8 µM	1.58 µM	7.22 µM	1.47 µM	> 13.6 µM	1.53 µM	4.65 µM	5.62 µM	> 50 µM	1.71 µM	> 50 µM	1.12 µM	3.51 µM
Cc1cc(Nc2cc(N3CCN(C)CC3)nc(Sc3ccc(NC(=O)C4CC4)cc3)n2)n[nH]1	> 10 µM	> 10 µM	0.232 µM	> 10 µM	0.00613 µM	> 10 µM	> 10 µM	> 10 µM	> 10 µM	> 10 µM	1.92 µM	> 10 µM	5.66 µM	> 10 µM	2.18 µM	> 10 µM	1.08 µM	> 10 µM	2.71 µM	> 10 µM
O=C(Nc1cc(Oc2cc(F)c(NC(=O)C3(C(=O)Nc4ccc(F)cc4)CC3)cc2F)ccn1)C1CC1	4.04 µM	> 29.9 µM	1.9 µM	> 100 µM	2.39 µM	7.59 µM	3.75 µM	> 100 µM	3.27 µM	> 100 µM	1.83 µM	4.14 µM	3.5 µM	> 29.4 µM	3.21 µM	> 36.6 µM	3.12 µM	> 100 µM	1.49 µM	3.16 µM
O=C(C[P+](c1ccccc1)(c1ccccc1)c1ccccc1)C[P+](c1ccccc1)(c1ccccc1)c1ccccc1	1.49 µM	3.17 µM	0.306 µM	7.49 µM	0.229 µM	1.05 µM	1.31 µM	2.78 µM	0.327 µM	1.3 µM	0.286 µM	1.13 µM	0.784 µM	2.17 µM	0.81 µM	3.04 µM	0.242 µM	0.816 µM	0.254 µM	1.44 µM
Nc1ccccc1C#C/C=C\C#Cc1c(F)c(F)c(F)c(F)c1F	33.9 µM	> 100 µM	16.3 µM	53.7 µM	0.385 µM	14.2 µM	26 µM	55.4 µM	24.7 µM	79.9 µM	20.9 µM	47.1 µM	19.4 µM	37.6 µM	11.6 µM	25.5 µM	18.7 µM	42 µM	41.8 µM	> 100 µM
C[C@]12CCNC(=O)C=C1CC[C@@H]1C2CC[C@@]2(C)C1CC[C@@H]2OC(=O)COc1ccc(N(CCCl)CCCl)cc1 (stereo partly drawn)		21.7 µM		46.3 µM		9.45 µM		50.7 µM		22 µM		9.01 µM		15 µM		23 µM		16.5 µM		47.2 µM
COc1ccc(C2C=C(c3ccc(Cl)cc3)N=C3SC=C(C)N32)c(Br)c1 (stereo not drawn)	3.57 µM	12.6 µM	4.02 µM	> 100 µM	2.37 µM	11.8 µM	5.25 µM	21.7 µM	2.68 µM	7.26 µM	2.15 µM	5.37 µM	4.43 µM	14.6 µM	3 µM	24.7 µM	2.85 µM	10.3 µM	3.77 µM	16.7 µM
Cc1c(C(N)=O)sc2c1c(=O)n(Cc1ccccc1)c1nnc(-c3ccc(Br)cc3)n21	2.97 µM	16.3 µM	3.09 µM	20.4 µM	0.805 µM	22.8 µM	2.91 µM	17.5 µM	2.32 µM	14.9 µM	2.87 µM	12.5 µM	1.91 µM	14.6 µM	2.51 µM	13.1 µM	2.98 µM	18.9 µM	4.44 µM	20.9 µM
O=C(Nc1ccccc1O)c1ccc(NS(=O)(=O)c2cccc3cccnc23)cc1	1.32 µM	6.17 µM	0.971 µM	> 25 µM	1.05 µM	> 25 µM	2.89 µM	> 14.8 µM	1.27 µM	9.55 µM	0.76 µM	10.1 µM	1.59 µM	5.23 µM	2.03 µM	9.02 µM	0.81 µM	4.88 µM	0.511 µM	8.03 µM
O=C1c2ccccc2C(=O)c2sc(Nc3ccccc3Cl)nc21		33.7 µM		6.8 µM		9.56 µM		28.1 µM		31.4 µM		31.4 µM		34.9 µM		46.2 µM		8.97 µM		27.1 µM
O=C(/C=C/C12c3ccccc3C(c3ccccc31)C1C(=O)NC(=O)C12)c1ccc(Cl)cc1 (stereo not drawn)	1.85 µM	3.87 µM	1.99 µM	> 100 µM	1.66 µM	> 100 µM	1.58 µM	3.04 µM	1.67 µM	3.26 µM	1.51 µM	2.86 µM	1.69 µM	3.37 µM	2.4 µM	10.1 µM	1.89 µM	4.26 µM	1.1 µM	2.32 µM
